{"source": "paper PMC5428567", "about": "“Pentameric ligand-gated ion channels exhibit distinct transmembrane domain archetypes for folding/expression and function” (Scientific Reports, 2017)", "key": {"[1]": {"test_system": "ELIC G311A", "set-up": "method as in Henault et al.[9], [18], [29]", "conditions": "Xenopus laevis oocytes; ±SD; n=11; ref Henault et al.[9], [18], [29]; cited from earlier work"}, "[2]": {"biological_target": "T1, ELIC F222A + C299A (Dickeya chrysanthemi, UniProt P0C7B7, C299A/F222A)", "T1 construct": "expressed in transfected cells; host or cells: Xenopus laevis oocytes injected with cRNA (pTLN plasmid)", "T1 sequence (P0C7B7 whole entry F222A/C299A)": "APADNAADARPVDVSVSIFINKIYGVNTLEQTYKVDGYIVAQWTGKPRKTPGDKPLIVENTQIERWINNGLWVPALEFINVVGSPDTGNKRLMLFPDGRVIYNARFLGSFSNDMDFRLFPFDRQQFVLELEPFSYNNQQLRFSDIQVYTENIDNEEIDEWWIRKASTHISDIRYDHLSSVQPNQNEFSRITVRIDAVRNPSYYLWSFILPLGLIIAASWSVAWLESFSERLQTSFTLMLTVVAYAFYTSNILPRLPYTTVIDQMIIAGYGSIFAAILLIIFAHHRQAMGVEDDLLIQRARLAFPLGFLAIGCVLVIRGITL", "assay": "TEVC cysteamine-induced current, ELIC F222A + C299A", "format": "cell-based", "conditions": "Xenopus laevis oocytes; ±SD; n=8", "excerpt": "(§1) To examine how different physical interactions at the M4-M1/M3 interface in both GLIC and ELIC (Fig. 1) influence function, we mutated each residue to Ala, and characterized how each mutation influenced agonist-induced channel gating using two-electrode voltage clamp electrophysiology. Both GLIC and ELIC are cation-selective ion channels that transiently gate open in response to agonist binding, although GLIC responds to protons while ELIC responds to primary amines, such as cysteamine, [34].\n(§2) Stage V–VI oocytes were collected as previously described, injected with cRNA, and allowed to incubate one to four days at 16 °C in ND96 + buffer (5 mM HEPES, 96 mM NaCl, 2 mM KCl, 1 mM MgCl2, 1 mM CaCl2, and 2 mM Pyruvate). Whole cell currents were recorded using a two-electrode voltage clamp apparatus (OC-725C oocyte clamp; Holliston, MA). For GLIC, whole cell currents were recorded from injected oocytes (3–20 ng cRNA) immersed in MES buffer (140 mM NaCl, 2.8 mM KCl, 2 mM MgCl2, and 10 mM MES). Currents through the plasma membrane in response to pH jumps (pH 7.3 down to the indicated pH values) were measured with the transmembrane voltage clamped at voltages between −20 mV and −40 mV depending on the level of expression, typically −20 mV. […]"}, "[3]": {"test_system": "ELIC I296A", "set-up": "method as in Henault et al.[9], [18], [29]", "conditions": "Xenopus laevis oocytes; ±SD; n=10; ref Henault et al.[9], [18], [29]; cited from earlier work"}, "[4]": {"biological_target": "T2, ELIC W219A + F307A (Dickeya chrysanthemi, UniProt P0C7B7, F307A/W219A)", "T2 construct": "expressed in transfected cells; host or cells: Xenopus laevis oocytes injected with cRNA (pTLN plasmid)", "T2 sequence (P0C7B7 whole entry W219A/F307A)": "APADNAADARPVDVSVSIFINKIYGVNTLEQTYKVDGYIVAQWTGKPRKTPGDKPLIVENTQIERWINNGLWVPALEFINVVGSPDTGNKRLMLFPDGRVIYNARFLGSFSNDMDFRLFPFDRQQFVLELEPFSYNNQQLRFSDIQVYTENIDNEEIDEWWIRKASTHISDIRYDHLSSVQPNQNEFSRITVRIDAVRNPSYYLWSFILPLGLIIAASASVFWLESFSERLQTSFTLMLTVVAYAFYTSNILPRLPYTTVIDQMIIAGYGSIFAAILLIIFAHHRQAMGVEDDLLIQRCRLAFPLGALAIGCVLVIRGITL", "assay": "TEVC cysteamine-induced current, ELIC W219A + F307A", "format": "cell-based", "conditions": "Xenopus laevis oocytes; ±SD; n=8", "excerpt": "as §1, §2"}, "[5]": {"biological_target": "T3, ELIC L204A (Dickeya chrysanthemi, UniProt P0C7B7, L204A)", "T3 construct": "expressed in transfected cells; host or cells: Xenopus laevis oocytes injected with cRNA", "T3 sequence (P0C7B7 whole entry L204A)": "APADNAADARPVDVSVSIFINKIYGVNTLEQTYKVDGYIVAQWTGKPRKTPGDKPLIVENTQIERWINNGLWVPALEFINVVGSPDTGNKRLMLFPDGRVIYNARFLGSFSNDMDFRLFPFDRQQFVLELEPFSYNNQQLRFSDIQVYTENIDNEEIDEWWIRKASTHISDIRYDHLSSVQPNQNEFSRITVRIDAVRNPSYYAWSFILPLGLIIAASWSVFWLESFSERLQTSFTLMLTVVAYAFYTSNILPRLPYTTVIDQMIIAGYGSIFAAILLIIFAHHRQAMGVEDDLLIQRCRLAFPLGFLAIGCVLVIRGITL", "assay": "TEVC cysteamine-induced current, ELIC L204A", "format": "cell-based", "conditions": "Xenopus laevis oocytes; ±SD; n=8", "excerpt": "as §1, §2"}, "[6]": {"biological_target": "T4, ELIC Q263A (Dickeya chrysanthemi, UniProt P0C7B7, Q263A)", "T4 construct": "expressed in transfected cells; host or cells: Xenopus laevis oocytes injected with cRNA", "T4 sequence (P0C7B7 whole entry Q263A)": "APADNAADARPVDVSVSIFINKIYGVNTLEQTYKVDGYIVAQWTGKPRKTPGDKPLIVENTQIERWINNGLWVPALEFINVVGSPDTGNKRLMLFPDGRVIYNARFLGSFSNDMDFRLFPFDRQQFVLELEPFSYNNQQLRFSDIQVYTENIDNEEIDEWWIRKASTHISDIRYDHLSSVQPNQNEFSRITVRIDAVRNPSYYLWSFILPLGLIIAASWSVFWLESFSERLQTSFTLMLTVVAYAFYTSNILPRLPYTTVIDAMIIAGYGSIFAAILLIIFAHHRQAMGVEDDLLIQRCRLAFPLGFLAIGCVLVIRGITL", "assay": "TEVC cysteamine-induced current, ELIC Q263A", "format": "cell-based", "conditions": "Xenopus laevis oocytes; ±SD; n=8", "excerpt": "as §1, §2"}, "[7]": {"biological_target": "T5, ELIC I215A (Dickeya chrysanthemi, UniProt P0C7B7, I215A)", "T5 construct": "expressed in transfected cells; host or cells: Xenopus laevis oocytes injected with cRNA", "T5 sequence (P0C7B7 whole entry I215A)": "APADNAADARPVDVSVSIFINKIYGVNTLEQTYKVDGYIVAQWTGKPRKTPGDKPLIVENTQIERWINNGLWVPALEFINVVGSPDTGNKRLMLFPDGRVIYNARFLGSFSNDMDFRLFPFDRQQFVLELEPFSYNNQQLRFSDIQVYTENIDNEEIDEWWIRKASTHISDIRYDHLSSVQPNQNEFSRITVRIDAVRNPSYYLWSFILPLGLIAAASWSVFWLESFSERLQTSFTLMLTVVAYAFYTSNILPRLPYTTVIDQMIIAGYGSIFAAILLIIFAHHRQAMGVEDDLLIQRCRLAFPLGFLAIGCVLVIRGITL", "assay": "TEVC cysteamine-induced current, ELIC I215A", "format": "cell-based", "conditions": "Xenopus laevis oocytes; ±SD; n=8", "excerpt": "as §1, §2"}, "[8]": {"biological_target": "T6, ELIC P304A (Dickeya chrysanthemi, UniProt P0C7B7, P304A)", "T6 construct": "expressed in transfected cells; host or cells: Xenopus laevis oocytes injected with cRNA (pTLN plasmid)", "T6 sequence (P0C7B7 whole entry P304A)": "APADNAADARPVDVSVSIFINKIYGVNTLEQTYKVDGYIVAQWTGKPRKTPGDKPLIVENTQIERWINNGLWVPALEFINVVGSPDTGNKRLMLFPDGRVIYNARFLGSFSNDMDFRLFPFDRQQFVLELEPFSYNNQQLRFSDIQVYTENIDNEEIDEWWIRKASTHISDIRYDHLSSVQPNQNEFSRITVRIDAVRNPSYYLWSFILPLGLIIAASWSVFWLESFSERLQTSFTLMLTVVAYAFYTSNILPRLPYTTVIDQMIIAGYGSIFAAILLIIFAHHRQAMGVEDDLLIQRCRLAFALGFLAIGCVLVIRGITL", "assay": "TEVC cysteamine-induced current, ELIC P304A", "format": "cell-based", "conditions": "Xenopus laevis oocytes; EC50 values were not obtained", "excerpt": "as §1, §2"}, "[9]": {"test_system": "ELIC F307A", "set-up": "method as in Henault et al.[9], [18], [29]", "conditions": "Xenopus laevis oocytes; ±SD; n=8; ref Henault et al.[9], [18], [29]; cited from earlier work"}, "[10]": {"test_system": "ELIC G318A", "set-up": "method as in Henault et al.[9], [18], [29]", "conditions": "Xenopus laevis oocytes; ±SD; n=10; ref Henault et al.[9], [18], [29]; cited from earlier work"}, "[11]": {"biological_target": "T7, ELIC M264A (Dickeya chrysanthemi, UniProt P0C7B7, M264A)", "T7 construct": "expressed in transfected cells; host or cells: Xenopus laevis oocytes injected with cRNA", "T7 sequence (P0C7B7 whole entry M264A)": "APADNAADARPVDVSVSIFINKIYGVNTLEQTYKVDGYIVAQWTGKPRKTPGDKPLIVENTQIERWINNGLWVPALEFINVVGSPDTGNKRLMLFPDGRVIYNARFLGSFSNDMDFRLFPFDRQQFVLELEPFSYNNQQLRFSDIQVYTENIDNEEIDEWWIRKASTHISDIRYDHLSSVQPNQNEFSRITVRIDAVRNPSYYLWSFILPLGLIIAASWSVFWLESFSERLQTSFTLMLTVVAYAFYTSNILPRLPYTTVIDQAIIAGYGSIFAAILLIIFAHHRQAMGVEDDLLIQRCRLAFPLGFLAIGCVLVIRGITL", "assay": "TEVC cysteamine-induced current, ELIC M264A", "format": "cell-based", "conditions": "Xenopus laevis oocytes; ±SD; n=8", "excerpt": "as §1, §2"}, "[12]": {"test_system": "ELIC C299A", "set-up": "method as in Henault et al.[9], [18], [29]", "conditions": "Xenopus laevis oocytes; ±SD; n=9; ref Henault et al.[9], [18], [29]; cited from earlier work"}, "[13]": {"biological_target": "T8, ELIC W219A (Dickeya chrysanthemi, UniProt P0C7B7, W219A)", "T8 construct": "expressed in transfected cells; host or cells: Xenopus laevis oocytes injected with cRNA", "T8 sequence (P0C7B7 whole entry W219A)": "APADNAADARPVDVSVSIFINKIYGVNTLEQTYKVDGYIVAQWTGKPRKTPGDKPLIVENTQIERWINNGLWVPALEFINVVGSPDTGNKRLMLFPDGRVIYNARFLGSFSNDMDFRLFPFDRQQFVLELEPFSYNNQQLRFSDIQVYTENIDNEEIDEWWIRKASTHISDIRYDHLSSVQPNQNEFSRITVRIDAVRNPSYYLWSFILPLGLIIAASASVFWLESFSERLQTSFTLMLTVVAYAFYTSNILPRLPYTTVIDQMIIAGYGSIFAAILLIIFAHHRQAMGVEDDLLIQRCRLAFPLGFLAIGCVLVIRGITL", "assay": "TEVC cysteamine-induced current, ELIC W219A", "format": "cell-based", "conditions": "Xenopus laevis oocytes; ±SD; n=8", "excerpt": "as §1, §2"}, "[14]": {"biological_target": "T9, ELIC F222A (Dickeya chrysanthemi, UniProt P0C7B7, F222A)", "T9 construct": "expressed in transfected cells; host or cells: Xenopus laevis oocytes injected with cRNA", "T9 sequence (P0C7B7 whole entry F222A)": "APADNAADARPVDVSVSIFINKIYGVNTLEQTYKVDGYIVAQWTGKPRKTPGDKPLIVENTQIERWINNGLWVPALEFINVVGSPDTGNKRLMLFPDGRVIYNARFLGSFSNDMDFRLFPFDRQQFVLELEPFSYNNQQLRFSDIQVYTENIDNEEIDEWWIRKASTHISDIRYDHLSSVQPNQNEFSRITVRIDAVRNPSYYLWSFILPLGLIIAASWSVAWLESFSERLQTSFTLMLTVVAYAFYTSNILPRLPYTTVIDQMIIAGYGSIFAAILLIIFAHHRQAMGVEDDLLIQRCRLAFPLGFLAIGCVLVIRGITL", "assay": "TEVC cysteamine-induced current, ELIC F222A", "format": "cell-based", "conditions": "Xenopus laevis oocytes", "excerpt": "as §1\nStage V–VI oocytes were collected as previously described, injected with cRNA, and allowed to incubate one to four days at 16 °C in ND96 + buffer (5 mM HEPES, 96 mM NaCl, 2 mM KCl, 1 mM MgCl2, 1 mM CaCl2, and 2 mM Pyruvate). Whole cell currents were recorded using a two-electrode voltage clamp apparatus (OC-725C oocyte clamp; Holliston, MA). For GLIC, whole cell currents were recorded from injected oocytes (3–20 ng cRNA) immersed in MES buffer (140 mM NaCl, 2.8 mM KCl, 2 mM MgCl2, and 10 mM MES). Currents through the plasma membrane in response to pH jumps (pH 7.3 down to the indicated pH values) were measured with the transmembrane voltage clamped at voltages between −20 mV and −40 mV depending on the level of expression, typically −20 mV. For ELIC, whole cell currents were recorded from injected oocytes (0.1–10 ng cRNA) immersed in HEPES buffer (150 mM NaCl, 0.5 mM BaCl2, and 10 mM HEPES, pH 7.0). In most cases, currents through the plasma membrane in response to cysteamine concentration jumps (from 0 mM up to the indicated values) were measured with the transmembrane voltage clamped at −30 mV.\nDose responses for each mutant were acquired from at least two different batches of oocytes. Each individual dose-response experiment was fit with a variable slope sigmoidal dose-response and the individual EC50 values from each experiment averaged to give the reported EC50 values ± standard deviation."}, "[15]": {"biological_target": "T10, ELIC G268A (Dickeya chrysanthemi, UniProt P0C7B7, G268A)", "T10 construct": "expressed in transfected cells; host or cells: Xenopus laevis oocytes injected with cRNA (pTLN plasmid)", "T10 sequence (P0C7B7 whole entry G268A)": "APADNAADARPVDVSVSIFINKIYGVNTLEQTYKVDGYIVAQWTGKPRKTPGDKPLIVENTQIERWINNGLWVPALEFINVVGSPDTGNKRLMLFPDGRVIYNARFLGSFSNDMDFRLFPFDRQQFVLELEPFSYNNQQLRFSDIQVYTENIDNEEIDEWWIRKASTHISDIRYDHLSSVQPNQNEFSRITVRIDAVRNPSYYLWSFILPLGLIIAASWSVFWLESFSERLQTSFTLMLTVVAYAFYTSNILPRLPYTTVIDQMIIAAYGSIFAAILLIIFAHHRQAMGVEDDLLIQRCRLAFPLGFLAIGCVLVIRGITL", "assay": "TEVC cysteamine-induced current, ELIC G268A", "format": "cell-based", "conditions": "Xenopus laevis oocytes; ±SD; n=8", "excerpt": "as §1, §2"}, "[16]": {"test_system": "ELIC I310A", "set-up": "method as in Henault et al.[9], [18], [29]", "conditions": "Xenopus laevis oocytes; ±SD; n=10; ref Henault et al.[9], [18], [29]; cited from earlier work"}, "[17]": {"biological_target": "T11, ELIC I208A (Dickeya chrysanthemi, UniProt P0C7B7, I208A)", "T11 construct": "expressed in transfected cells; host or cells: Xenopus laevis oocytes injected with cRNA", "T11 sequence (P0C7B7 whole entry I208A)": "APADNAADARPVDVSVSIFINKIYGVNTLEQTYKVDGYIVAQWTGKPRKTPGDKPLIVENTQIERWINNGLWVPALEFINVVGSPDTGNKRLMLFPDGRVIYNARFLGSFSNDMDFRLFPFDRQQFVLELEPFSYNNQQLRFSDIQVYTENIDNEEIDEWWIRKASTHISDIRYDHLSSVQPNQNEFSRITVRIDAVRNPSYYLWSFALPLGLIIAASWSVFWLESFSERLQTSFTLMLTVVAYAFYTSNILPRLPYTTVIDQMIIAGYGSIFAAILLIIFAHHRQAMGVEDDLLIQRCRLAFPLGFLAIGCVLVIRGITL", "assay": "TEVC cysteamine-induced current, ELIC I208A", "format": "cell-based", "conditions": "Xenopus laevis oocytes; ±SD; n=8", "excerpt": "as §1, §2"}, "[18]": {"biological_target": "T12, ELIC G270A (Dickeya chrysanthemi, UniProt P0C7B7, G270A)", "T12 construct": "expressed in transfected cells; host or cells: Xenopus laevis oocytes injected with cRNA (pTLN plasmid)", "T12 sequence (P0C7B7 whole entry G270A)": "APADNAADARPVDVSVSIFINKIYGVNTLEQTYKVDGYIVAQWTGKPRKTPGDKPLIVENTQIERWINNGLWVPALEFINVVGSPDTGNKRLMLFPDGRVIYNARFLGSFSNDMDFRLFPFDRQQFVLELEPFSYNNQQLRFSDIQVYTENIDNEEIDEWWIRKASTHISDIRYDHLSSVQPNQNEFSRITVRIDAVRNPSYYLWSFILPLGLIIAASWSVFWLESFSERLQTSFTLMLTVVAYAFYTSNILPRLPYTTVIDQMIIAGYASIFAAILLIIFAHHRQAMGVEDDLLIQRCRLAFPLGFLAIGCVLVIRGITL", "assay": "TEVC cysteamine-induced current, ELIC G270A", "format": "cell-based", "conditions": "Xenopus laevis oocytes; ±SD; n=8", "excerpt": "as §1, §2"}}, "data": [{"molecule": "NCCS", "note": "[cysteamine]", "values": [{"measurement": "−logEC50", "setting": "[1]", "value": "3.29 ± 0.09"}, {"measurement": "EC50", "setting": "[2]", "value": "100 ± 20", "unit": "µM"}, {"measurement": "−logEC50", "setting": "[2]", "value": "4.00 ± 0.09"}, {"measurement": "EC50", "setting": "[3]", "value": "270 ± 30", "unit": "µM"}, {"measurement": "−logEC50", "setting": "[3]", "value": "3.57 ± 0.05"}, {"measurement": "EC50", "setting": "[4]", "value": "450 ± 70", "unit": "µM"}, {"measurement": "−logEC50", "setting": "[4]", "value": "3.35 ± 0.07"}, {"measurement": "EC50", "setting": "[5]", "value": "3550 ± 310", "unit": "µM"}, {"measurement": "−logEC50", "setting": "[5]", "value": "2.45 ± 0.04"}, {"measurement": "EC50", "setting": "[6]", "value": "580 ± 40", "unit": "µM"}, {"measurement": "−logEC50", "setting": "[6]", "value": "3.24 ± 0.03"}, {"measurement": "EC50", "setting": "[7]", "value": "320 ± 40", "unit": "µM"}, {"measurement": "−logEC50", "setting": "[7]", "value": "3.49 ± 0.05"}, {"measurement": "desensitization kinetics", "setting": "[8]", "value": "substantially altered desensitization kinetics"}, {"measurement": "EC50", "setting": "[9]", "value": "570 ± 90", "unit": "µM"}, {"measurement": "−logEC50", "setting": "[9]", "value": "3.24 ± 0.07"}, {"measurement": "EC50", "setting": "[10]", "value": "760 ± 130", "unit": "µM"}, {"measurement": "−logEC50", "setting": "[10]", "value": "3.12 ± 0.08"}, {"measurement": "EC50", "setting": "[11]", "value": "1290 ± 120", "unit": "µM"}, {"measurement": "−logEC50", "setting": "[11]", "value": "2.89 ± 0.04"}, {"measurement": "EC50", "setting": "[12]", "value": "560 ± 80", "unit": "µM"}, {"measurement": "−logEC50", "setting": "[12]", "value": "3.25 ± 0.06"}, {"measurement": "EC50", "setting": "[13]", "value": "910 ± 50", "unit": "µM"}, {"measurement": "−logEC50", "setting": "[13]", "value": "3.04 ± 0.02"}, {"measurement": "gain-of-function relative to WT ELIC", "setting": "[14]; shift versus WT", "value": 10, "unit": "fold"}, {"measurement": "EC50", "setting": "[14]; ±SD, n=8", "value": "90 ± 30", "unit": "µM"}, {"measurement": "−logEC50", "setting": "[14]; ±SD, n=8", "value": "4.05 ± 0.15"}, {"measurement": "EC50", "setting": "[15]", "value": "1190 ± 140", "unit": "µM"}, {"measurement": "−logEC50", "setting": "[15]", "value": "2.92 ± 0.05"}, {"measurement": "EC50", "setting": "[16]", "value": "880 ± 90", "unit": "µM"}, {"measurement": "−logEC50", "setting": "[16]", "value": "3.05 ± 0.04"}, {"measurement": "EC50", "setting": "[17]", "value": "250 ± 50", "unit": "µM"}, {"measurement": "−logEC50", "setting": "[17]", "value": "3.60 ± 0.09"}, {"measurement": "EC50", "setting": "[18]", "value": "1020 ± 100", "unit": "µM"}, {"measurement": "−logEC50", "setting": "[18]", "value": "2.99 ± 0.04"}]}]}
